Patent US9279813B2, “Ex vivo flow cytometry method and device” (Purdue Research Foundation, priority 2006, dated 2016)

Molecular target: T1, cell surface folate receptors on folate receptor positive M109 cells (Mus musculus, UniProt P35846)
T1 construct: cell surface folate receptors on folate receptor positive M109 cells in culture; endogenous in cells; host or cells: M109 cells
Experiment: Fluorescence measurement of binding to cell surface folate receptors on M109 cells in culture
Assay type: cell-based
Experimental: TEXAS RED C2-maleimide (Molecular Probes, Eugene, Oreg.) was dissolved in dimethyl sulfoxide (DMSO) (1 mg in 200 μl DMSO). A 1.4 molar equivalent (1 mg) of Folate-Cys was added to the solution and mixed for 4 hours at room temperature. Folate-Cys-TEXAS RED (Folate-TEXAS RED) was purified by reverse-phase HPLC on a C18 column at a flow rate of 1 ml/min. The mobile phase, consisting of 10 mM NH4HCO3 buffer, pH 7.0 (eluent A) and acetonitrile (eluent B), was maintained at a 99:1 A:B ratio for the first five minutes and then changed to 70:30 A:B in a linear gradient over the next 30 minutes followed by a 1:99 A:B linear gradient over the last 15 minutes. Folate-Cys-TEXAS RED eluted as two isomer peaks at 44.5 and 45.8 minutes. The product was confirmed by mass spectroscopy and the biologic activity was confirmed by fluorescence measurement of its binding to cell surface folate receptors on folate receptor positive M109 cells in culture.
ALEXAFLUOR 488 C5-maleimide (Molecular Probes, Eugene, Oreg.) was dissolved in dimethyl sulfoxide (DMSO) (0.5 mg in 50 μl DMSO). A 1.5 molar equivalent (0.57 mg) of Folate-Cys was added to the solution and mixed for 4 hours at room temperature. […] The product was confirmed by mass spectroscopy and the biologic activity was confirmed by fluorescence measurement of its binding to cell surface folate receptors on folate receptor positive M109 cells in culture.

T1 sequence (P35846 25-232): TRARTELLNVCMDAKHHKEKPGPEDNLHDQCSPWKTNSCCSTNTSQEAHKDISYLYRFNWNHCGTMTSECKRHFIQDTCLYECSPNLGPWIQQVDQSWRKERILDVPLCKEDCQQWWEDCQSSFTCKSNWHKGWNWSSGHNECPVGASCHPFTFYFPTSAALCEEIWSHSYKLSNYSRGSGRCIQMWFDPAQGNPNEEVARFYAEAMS

## N=c1ccc2c(-c3ccc(C(=O)NCCCCCN4C(=O)CC(SCC(NC(=O)CCC(NC(=O)c5ccc(NCc6cnc7nc(N)[nH]c(=O)c7n6)cc5)C(=O)O)C(=O)O)C4=O)cc3C(=O)O)c3ccc(N)c(S(=O)(=O)O)c3oc-2c1S(=O)(=O)O (centres unmarked) [Folate-Cys-ALEXAFLUOR 488]
  biologic activity: binding to cell surface folate receptors: confirmed

## Nc1nc2ncc(CNc3ccc(C(=O)NC(CCC(=O)NC(CSC4CC(=O)N(CCNS(=O)(=O)c5ccc(C6=c7cc8c9c(c7Oc7c6cc6c%10c7CCCN%10CCC6)CCC[N+]=9CCC8)c(S(=O)(=O)O)c5)C4=O)C(=O)O)C(=O)O)cc3)nc2c(=O)[nH]1 (centres unmarked) [Folate-Cys-TEXAS RED]
  biologic activity: binding to cell surface folate receptors: confirmed
